These results are taken from patent publication US20250236639A1, “NEUROACTIVE STEROIDS AND COMPOSITIONS THEREOF” (Sage Therapeutics, Inc., priority 2019, published 2025).

In general, IC50 refers to the concentration at which inhibition is half-maximal.

SMILES strings stand for the structures.

This assay deals with GABAA receptor. As to the kind of experiment: Steroid inhibition of [35S]-TBPS binding, rat brain cortical membranes. As to conditions: 3 nM [35S]-TBPS, in the presence of 5 mM GABA. On the procedure: [^35S]-t-Butylbicyclophosphorothionate (TBPS) binding assays using rat brain cortical membranes in the presence of 5 mM GABA has been described (Gee et al, J. Pharmacol. Exp. Ther. 1987, 241, 346-353; Hawkinson et al, Mol. Pharmacol. 1994, 46, 977-985; Lewin, A. H et al., Mol. Pharmacol. 1989, 35, 189-194).
Briefly, cortices are rapidly removed following decapitation of carbon dioxide-anesthetized Sprague-Dawley rats (200-250 g). The cortices are homogenized in 10 volumes of ice-cold 0.32 M sucrose using a glass/teflon homogenizer and centrifuged at 1500×g for 10 min at 4° C. The resultant supernatants are centrifuged at 10,000×g for 20 min at 4° C. to obtain the P2 pellets. The P2 pellets are resuspended in 200 mM NaCl/50 mM Na—K phosphate pH 7.4 buffer and centrifuged at 10,000×g for 10 min at 4° C. This washing procedure is repeated twice and the pellets are resuspended in 10 volumes of buffer. Aliquots ([…]) of the membrane suspensions are incubated with 3 nM [^35S]-TBPS and […] aliquots of test drug dissolved in dimethyl sulfoxide (DMSO) (final 0.5%) in the presence of 5 mM GABA. The incubation is brought to a final volume of 1.0 mL with buffer. Nonspecific binding is determined in the presence of […] and ranged from 15 to 25%. Following a 90 min incubation at room temp, the assays are terminated by filtration through glass fiber filters (Schleicher and Schuell No. 32) using a cell harvester (Brandel) and rinsed three times with ice-cold buffer. Filter bound radioactivity is measured by liquid scintillation spectrometry. Non-linear curve fitting of the overall data for each drug averaged for each concentration is done using Prism (GraphPad). […] The concentration of test compound producing 50% inhibition (IC50) of specific binding and the maximal extent of inhibition (Imax) are determined for the individual experiments with the same model used for the overall data and then the means±SEM.s of the individual experiments are calculated.
Various compounds are or can be screened to determine their potential as modulators of [^35S]-TBPS binding in vitro. These assays are or can be performed in accordance with the above

Regarding `CCC[C@@]1(O)CC[C@H]2[C@@H](CC[C@@H]3[C@@H]2CC[C@@]2(C)[C@H]3CC[C@@H]2[C@@](C)(O)Cn2cc(C#N)cn2)C1` [Compound 10, 1-((R)-2-hydroxy-2-((3R,5S,8R,9R,10S,13S,14S,17S)-3-hydroxy-13-methyl-3-propylhexadecahydro-1H-cyclopenta[a]phenanthren-17-yl)propyl)-1H-pyrazole-4-carbonitrile], the IC50 is at least 1000 nM.

Consider `CCC[C@@]1(O)CC[C@H]2[C@H](CC[C@@H]3[C@@H]2CC[C@@]2(C)[C@H]3CC[C@@H]2[C@](C)(O)Cn2cc(C#N)cn2)C1` [Compound 7, 1-((S)-2-hydroxy-2-((3R,5R,8R,9R,10S,13S,14S,17S)-3-hydroxy-13-methyl-3-propylhexadecahydro-1H-cyclopenta[a]phenanthren-17-yl)propyl)-1H-pyrazole-4-carbonitrile], for which the IC50 is under 100 nM.

On to `CCOC[C@@]1(O)CC[C@H]2[C@H](CC[C@@H]3[C@@H]2CC[C@@]2(C)[C@H]3CC[C@@H]2[C@@](C)(O)Cn2cc(C#N)cn2)C1` [Compound 16, 1-((R)-2-((3R,5R,8R,9R,10S,13S,14S,17S)-3-(ethoxymethyl)-3-hydroxy-13-methylhexadecahydro-1H-cyclopenta[a]phenanthren-17-yl)-2-hydroxypropyl)-1H-pyrazole-4-carbonitrile], for which the IC50 was under 100 nM.

In the case of `C[C@@]1(O)CC[C@H]2[C@H](CC[C@@H]3[C@@H]2CC[C@@]2(C)[C@H]3CC[C@@H]2[C@](C)(C#N)Cn2cc(C#N)cn2)C1` [Compound 57, 1-((S)-2-cyano-2-((3R,5R,8R,9R,10S,13S,14S,17S)-3-hydroxy-3,13-dimethylhexadecahydro-1H-cyclopenta[a]phenanthren-17-yl)propyl)-1H-pyrazole-4-carbonitrile], the IC50 was under 100 nM.

On to `C[C@H]1C[C@H]2[C@H](CC[C@@H]3[C@@H]2CC[C@@]2(C)[C@H]3CC[C@@H]2[C@](C)(O)Cn2cc(C#N)cn2)C[C@]1(C)O` [Compound 50, 1-((S)-2-hydroxy-2-((2S,3S,5R,8R,9R,10S,13S,14S,17S)-3-hydroxy-2,3,13-trimethylhexadecahydro-1H-cyclopenta[a]phenanthren-17-yl)propyl)-1H-pyrazole-4-carbonitrile], for which the IC50 is under 100 nM.

Turning to `COC[C@@]1(O)CC[C@H]2[C@H](CC[C@@H]3[C@@H]2CC[C@]2(C)[C@@H](C(C)(Cn4cc(C#N)cn4)OC)CC[C@@H]32)C1` (stereo in doubt) [Compound 32, 1-((R)-2-((3R,5R,8R,9R,10S,13S,14S,17S)-3-hydroxy-3-(methoxymethyl)-13-methylhexadecahydro-1H-cyclopenta[a]phenanthren-17-yl)-2-methoxypropyl)-1H-pyrazole-4-carbonitrile], the 50% inhibitory concentration (IC50) was in the range of 100 to 1000 nM.

As for `CCC[C@@]1(O)CC[C@@]2(CC)[C@H](CC[C@H]3[C@@H]4CC[C@H]([C@](C)(O)Cn5cc(C#N)cn5)[C@@]4(C)CC[C@@H]32)C1` [Compound 44, 1-((S)-2-((3R,5R,8S,9S,10S,13S,14S,17S)-10-ethyl-3-hydroxy-13-methyl-3-propylhexadecahydro-1H-cyclopenta[a]phenanthren-17-yl)-2-hydroxypropyl)-1H-pyrazole-4-carbonitrile], the IC50 is under 100 nM.

Consider `C[C@@]1(O)CC[C@H]2[C@H](CC[C@@H]3[C@@H]2CC[C@@]2(C)[C@H]3CC[C@@H]2[C@](C)(O)Cn2cc(C#N)cn2)C1` [Compound 2, 1-((S)-2-hydroxy-2-((3R,5R,8R,9R,10S,13S,14S,17S)-3-hydroxy-3,13-dimethylhexadecahydro-1H-cyclopenta[a]phenanthren-17-yl)propyl)-1H-pyrazole-4-carbonitrile], for which the IC50 is under 100 nM.

Regarding `CCC[C@@]1(O)CC[C@H]2[C@H](CC[C@@H]3[C@@H]2CC[C@@]2(C)[C@H]3CC[C@@H]2[C@@](C)(O)Cn2ccc(C#N)n2)C1` [Compound 23, 1-((R)-2-hydroxy-2-((3R,5R,8R,9R,10S,13S,14S,17S)-3-hydroxy-13-methyl-3-propylhexadecahydro-1H-cyclopenta[a]phenanthren-17-yl)propyl)-1H-pyrazole-3-carbonitrile], the IC50 fell in the range of 100 to 1000 nM.

For `C[C@@H]1C[C@H]2[C@H](CC[C@@H]3[C@@H]2CC[C@@]2(C)[C@H]3CC[C@@H]2[C@](C)(O)Cn2cc(C#N)cn2)C[C@]1(C)O` [Compound 52, 1-((S)-2-hydroxy-2-((2R,3S,5R,8R,9R,10S,13S,14S,17S)-3-hydroxy-2,3,13-trimethylhexadecahydro-1H-cyclopenta[a]phenanthren-17-yl)propyl)-1H-pyrazole-4-carbonitrile], the IC50 is under 100 nM.

`C[C@@]1(O)CC[C@H]2[C@H](CC[C@@H]3[C@@H]2CC[C@@]2(C)[C@H]3[C@H](C3CC3)C[C@@H]2[C@](C)(O)Cn2cc(C#N)cn2)C1` [Compound 47, 1-((S)-2-((3R,5R,8R,9R,10S,13S,14S,15S,17S)-15-cyclopropyl-3-hydroxy-3,13-dimethylhexadecahydro-1H-cyclopenta[a]phenanthren-17-yl)-2-hydroxypropyl)-1H-pyrazole-4-carbonitrile]: the IC50 was under 100 nM.

Consider `CCC[C@@]1(O)CC[C@H]2[C@@H](CC[C@@H]3[C@@H]2CC[C@@]2(C)[C@H]3CC[C@@H]2[C@](C)(O)Cn2cc(C#N)cn2)C1` [Compound 9, 1-((S)-2-hydroxy-2-((3R,5S,8R,9R,10S,13S,14S,17S)-3-hydroxy-13-methyl-3-propylhexadecahydro-1H-cyclopenta[a]phenanthren-17-yl)propyl)-1H-pyrazole-4-carbonitrile], for which the IC50 lay in the range of 100 to 1000 nM.

For `COC[C@H]1C[C@H]2[C@H](CC[C@@H]3[C@@H]2CC[C@@]2(C)[C@H]3CC[C@@H]2[C@](C)(O)Cn2cc(C#N)cn2)C[C@]1(C)O` [Compound 58, 1-((S)-2-hydroxy-2-((2R,3S,5R,8R,9R,10S,13S,14S,17S)-3-hydroxy-2-(methoxymethyl)-3,13-dimethylhexadecahydro-1H-cyclopenta[a]phenanthren-17-yl)propyl)-1H-pyrazole-4-carbonitrile], the IC50 was under 100 nM.

On to `C[C@@]1(O)CC[C@H]2[C@H](CC[C@@H]3[C@@H]2CC[C@@]2(C)[C@H]3[C@H](C3CC3)C[C@@H]2[C@@](C)(O)Cn2cc(C#N)cn2)C1` [Compound 46, 1-((R)-2-((3R,5R,8R,9R,10S,13S,14S,15S,17S)-15-cyclopropyl-3-hydroxy-3,13-dimethylhexadecahydro-1H-cyclopenta[a]phenanthren-17-yl)-2-hydroxypropyl)-1H-pyrazole-4-carbonitrile], for which the IC50 was under 100 nM.

On to `COC[C@@]1(O)CC[C@H]2[C@H](CC[C@@H]3[C@@H]2CC[C@]2(C)[C@@H](C4(Cn5cc(C#N)cn5)COC4)CC[C@@H]32)C1` [Compound 40, 1-((3-((3R,5R,8R,9R,10S,13S,14S,17S)-3-hydroxy-3-(methoxymethyl)-13-methylhexadecahydro-1H-cyclopenta[a]phenanthren-17-yl)oxetan-3-yl)methyl)-1H-pyrazole-4-carbonitrile], for which the IC50 was under 100 nM.

Regarding `CC[C@]12CC[C@@](C)(O)C[C@H]1CC[C@H]1[C@@H]3CC[C@H]([C@](C)(Cn4cc(C#N)cn4)OC)[C@@]3(C)CC[C@@H]12` [Compound 6, 1-((R)-2-((3R,5R,8S,9S,10S,13S,14S,17S)-10-ethyl-3-hydroxy-3,13-dimethylhexadecahydro-1H-cyclopenta[a]phenanthren-17-yl)-2-methoxypropyl)-1H-pyrazole-4-carbonitrile], the IC50 is under 100 nM.

Consider `CC[C@H]1C[C@H]2[C@H](CC[C@@H]3[C@@H]2CC[C@@]2(C)[C@H]3CC[C@@H]2[C@@](C)(O)Cn2cc(C#N)cn2)C[C@]1(C)O` [Compound 35, 1-((R)-2-((2S,3S,5R,8R,9R,10S,13S,14S,17S)-2-ethyl-3-hydroxy-3,13-dimethylhexadecahydro-1H-cyclopenta[a]phenanthren-17-yl)-2-hydroxypropyl)-1H-pyrazole-4-carbonitrile], for which the IC50 was in the range of 100 to 1000 nM.

Regarding `CC[C@@]1(O)CC[C@H]2[C@H](CC[C@@H]3[C@@H]2CC[C@@]2(C)[C@H]3CC[C@@H]2[C@@](C)(O)Cn2cc(C#N)cn2)C1` [Compound 12, 1-((R)-2-((3R,5R,8R,9R,10S,13S,14S,17S)-3-ethyl-3-hydroxy-13-methylhexadecahydro-1H-cyclopenta[a]phenanthren-17-yl)-2-hydroxypropyl)-1H-pyrazole-4-carbonitrile], the IC50 was in the range of 100 to 1000 nM.
